# Reference: US11203577B2, “Sulfonyl-structure-containing triazinone derivatives, their preparation methods and their uses in insect killing and/or bacterium killing” (Nankai University, priority 2017, dated 2021)
# Where two headings read alike, the source gives them in different places.
# Legend:
# Cucumber fusarium wilt = assay: In vitro fungicidal activity, PDA colony diameter; assay type: cell-based; details: 96 h, 50 mg/kg, inhibition of colony diameter, read-out: Fungicidal activity (%) Cucumber fusarium wilt
# [1] = tested on: Cercospora brown spot of peanut; assay: In vitro fungicidal activity, PDA colony diameter; assay type: cell-based; details: 96 h, 50 mg/kg, inhibition of colony diameter, read-out: Fungicidal activity (%) Cercospora brown spot of peanut
# Tomato early blight = assay: In vitro fungicidal activity, PDA colony diameter; assay type: cell-based, Alternaria solani; details: read-out: Fungicidal activity (%) Tomato early blight
# Wheat head blight = assay: whole plant or invertebrate; assay type: cell-based; details: Triticum aestivum, read-out: Fungicidal activity (%) Wheat head blight
# Rice bakanae disease = assay: In vitro fungicidal activity, PDA colony diameter; assay type: cell-based; details: read-out: Fungicidal activity (%) Rice bakanae disease
# Sclerotinia rot of colza = assay: In vitro fungicidal activity, PDA colony diameter; assay type: cell-based; details: 96 h, 50 mg/kg, inhibition of colony diameter, read-out: Fungicidal activity (%) Sclerotinia rot of colza
# Apple ring rot = assay: In vitro fungicidal activity, PDA colony diameter; assay type: cell-based; details: inhibition of colony diameter
# Procedure: (§1) Here, the test is described in an example of Alternaria solani; it can be replaced by other fungi.
# (§2) In vitro testing method: Alternaria solani is inoculated to a PDA culture medium and cultured for 7 days, a fungus dish with a diameter of […] is prepared on the periphery of the colony with a punch and inoculated to a PDA culture medium that contains pesticide at a concentration of 50 mg/kg and a PDA culture medium that doesn't contain the pesticide, and are cultured for 4 days respectively; then, the colony diameters are measured, and the inhibition percentages of the pesticides are calculated by comparing with the control sample.
# [2] = tested on: Capsicum phytophthora blight; assay: In vitro fungicidal activity, PDA colony diameter; assay type: cell-based; details: 96 h
# Procedure: as §1, §2
# Wheat sheath blight = assay: In vitro fungicidal activity, PDA colony diameter; assay type: cell-based; details: 50 mg/kg, inhibition of colony diameter; read-out: Fungicidal activity (%) Wheat sheath blight
# [3] = tested on: Corn southern leaf blight; assay: In vitro fungicidal activity, PDA colony diameter; assay type: cell-based; details: 50 mg/kg, inhibition of colony diameter; read-out: Fungicidal activity (%) Corn southern leaf blight
# Watermelon anthracnose = assay: In vitro fungicidal activity, PDA colony diameter; assay type: cell-based; details: 50 mg/kg, inhibition of colony diameter; read-out: Fungicidal activity (%) Watermelon anthracnose
# Potato late blight = assay: microbe, parasite or virus in culture; assay type: cell-based; details: Phytophthora infestans, 96 h, read-out: Fungicidal activity (%) Potato late blight
# Rice sheath blight = assay: In vitro fungicidal activity, PDA colony diameter; assay type: cell-based; details: 50 mg/kg, inhibition of colony diameter; read-out: Fungicidal activity (%) Rice sheath blight
# Armyworms = assay: Test of insecticidal activity against armyworms (leaf immersion); details: 600 mg/kg, 3-4 days
# Maize borers = assay: Test of insecticidal activity against maize borers (leaf immersion); details: read-out: Mortalities (%) Maize borers
# [4] = tested on: mosquito larvae (Culer pipiens pallens); assay: Test of insecticidal activity against mosquito larvae (checked after 24 h); details: 24 h, read-out: Mortalities (%) against mosquito larvae
# Procedure: Method of testing against mosquito larvae: the tested mosquito larvae are Culer pipiens pallens, a normal colony fed indoor. About 5 mg compound to be tested is weighed and loaded into a penicillin vial, 5 mL acetone (or an appropriate solvent) is added into the vial, and the vial is oscillated to dissolve the compound; thus, 1,000 ppm mother liquid is obtained. 1 mL mother liquid is weighed and added into a 100 mL beaker filled with 89 mL water, 10 mosquito larvae in the early stage of the 4th instar together with 10 mL feeding solution are poured into the beaker; thus, the concentration of the pesticide solution is 10 ppm (the pesticide solutions with other concentrations are attained by diluting the mother liquid by corresponding times). […] Water solution that contains 0.5 mL test solvent is used as a blank sample.
# [5] = tested on: bean aphides (Aphis laburni Kaltenbach); assay: Test of insecticidal activity against aphides (leaf immersion, checked after 96 h); details: for mortality at 10 mg/kg / mortality at 100 mg/kg / mortality at 600 mg/kg / mortality at 5 mg/kg / mortality at 2.5 mg/kg: Aphis, 96 h, read-out: Mortalities (%) against aphides
# Cotton bollworms = assay: Test of insecticidal activity against cotton bollworms (pesticide mixed into feedstuff); details: read-out: Mortalities (%) Cotton bollworms
# Procedure: Method of testing against cotton bollworms: the pesticide is mixed into the feedstuff, i.e., 3 mL prepared solution is added into about 27 g freshly prepared feedstuff; thus, required concentration is obtained by diluting by 10 times.
# [6] = 50 mg/kg, inhibition of colony diameter
Structure (SMILES),inhibition of growth at 50 mg/kg (Cucumber fusarium wilt) [%],inhibition of growth at 50 mg/kg [1] [%],inhibition at 50 mg/kg (Tomato early blight; [6]) [%],inhibition at 50 mg/kg (Wheat head blight) [%],inhibition at 50 mg/kg (Rice bakanae disease; [6]) [%],inhibition of growth at 50 mg/kg (Sclerotinia rot of colza) [%],inhibition at 50 mg/kg (Apple ring rot) [%],inhibition of growth at 50 mg/kg [2] [%],inhibition at 50 mg/kg (Wheat sheath blight) [%],inhibition at 50 mg/kg [3] [%],inhibition at 50 mg/kg (Watermelon anthracnose) [%],inhibition of growth at 50 mg/kg (Potato late blight) [%],inhibition at 50 mg/kg (Rice sheath blight) [%],Mortalities (%) Armyworms (Armyworms) [%],mortality at 600 mg/kg (Maize borers) [%],mortality at 10 mg/kg [4] [%],mortality at 10 mg/kg [5] [%],mortality at 100 mg/kg [5] [%],mortality at 600 mg/kg [5] [%],mortality at 600 mg/kg (Cotton bollworms) [%],further results
"CC1=NNC(=O)N(NS(=O)(=O)C2CC2)C1 [Ia-5, N-(6-methyl-3-oxo-2,3-dihydro-1,2,4-triazin-4(5H)-yl)-cyclopropylsulfonamide]",8.8,8,14.9,10.8,20.7,21,10.8,5.6,8.7,18.7,16.4,64.5,19.8,10,10,10,30,85,100,15,–
"CC1=NNC(=O)N(NS(=O)(=O)C2CCCCC2)C1 [Ia-6, N-(6-methyl-3-oxo-2,3-dihydro-1,2,4-triazin-4(5H)-yl)-cyclohexylsulfonamide]",20.6,13,12.9,10.9,12.5,31.6,39.2,18.8,30.9,7.7,12.5,3.1,11.6,50,40,70,–,45,85,30,–
"CC1=NNC(=O)N(NS(=O)(=O)Cc2ccccc2)C1 [Ia-7, N-(6-methyl-3-oxo-2,3-dihydro-1,2,4-triazin-4(5H)-yl)-phenylmethylsulfonamide]",0,15.8,–,30,38.9,31.7,41.4,36.7,63.6,20.8,20.8,33.3,30.2,0,0,70,20,75,100,35,inhibition at 50 mg/kg (Tomato early blight): 33.3%
"CC1=NNC(=O)N(NS(=O)(=O)c2cccc3ccccc23)C1 [Ia-8, N-(6-methyl-3-oxo-2,3-dihydro-1,2,4-triazin-4(5H)-yl)-naphthyl-1-sulfonamide]",20.5,19.2,20,33.3,7.4,16.7,0,26.9,30.2,8.3,0,28.6,17.9,10,0,15,25,85,90,0,–
"CC1=NNC(=O)N(NS(=O)(=O)c2ccccc2)C1 [Ia-9, N-(6-methyl-3-oxo-2,3-dihydro-1,2,4-triazin-4(5H)-yl)-benzenesulfonamide]",0,15.8,9.5,0,–,40,24.1,26.5,40.9,12.5,12.5,22.2,50.8,35,25,100,100,100,100,30,inhibition at 50 mg/kg (Rice bakanae disease): 22.2%; mortality at 2 mg/kg [4]: 10%; mortality at 5 mg/kg [4]: 80%; insecticidal activity against aphides compared with pymetrozine ([5]; 5 mg/kg): equivalent to the insecticidal activity of pymetrozine; mortality at 5 mg/kg [5]: 30%
"CC1=NNC(=O)N(NS(=O)(=O)c2ccccc2C)C1 [Ia-10, 2-methyl-N-(6-methyl-3-oxo-2,3-dihydro-1,2,4-triazin-4(5H)-yl)-benzenesulfonamide]",5.9,4,9,13.5,13.8,21,10.8,9.4,14.3,37.5,39.2,18.7,17.4,40,40,100,100,100,100,50,mortality at 2 mg/kg [4]: 40%; mortality at 5 mg/kg [4]: 100%; mortality at 2.5 mg/kg [5]: 25%; mortality at 5 mg/kg [5]: 90%
"CC1=NNC(=O)N(NS(=O)(=O)c2cccc(C)c2)C1 [Ia-11, 3-methyl-N-(6-methyl-3-oxo-2,3-dihydro-1,2,4-triazin-4(5H)-yl)-benzenesulfonamide]",8.8,8,1.5,2.7,10.3,26.3,6.8,27.8,14.3,18.7,36.1,9.3,16.3,20,15,100,100,100,100,20,mortality at 2 mg/kg [4]: 20%; mortality at 5 mg/kg [4]: 100%; mortality at 2.5 mg/kg [5]: 15%; mortality at 5 mg/kg [5]: 80%
"CC1=NNC(=O)N(NS(=O)(=O)c2c(C)cc(C)cc2C)C1 [Ia-13, 2,4,6-trimethyl-N-(6-methyl-3-oxo-2,3-dihydro-1,2,4-triazin-4(5H)-yl)-benzenesulfonamide]",0,12,9,16.2,13.8,21,10.8,22.2,4.3,28.1,24.6,25,11.6,65,45,100,100,100,100,30,mortality at 2 mg/kg [4]: 20%; mortality at 5 mg/kg [4]: 100%; mortality at 2.5 mg/kg [5]: 10%; mortality at 5 mg/kg [5]: 60%
